Laboratory results reported in US20100227313A1, “Methods and Compositions for Determining Altered Susceptibility of HIV-1 to Protease Inhibitor Treatment” (priority 2007, published 2010).

Tested on: HIV-1
Assay: Resistance test vector (PHENOSENSE) phenotypic susceptibility assay, fold change in IC50, correlated with genotype (Fisher's Exact test, odds ratio)
Type: cell-based, human immunodeficiency virus type 1
Settings: for Odds Ratio: reduced susceptibility (FC>2)
Text: See Petropoulos et al., 2000, Antimicrob. Agents Chemother. 44:920-928; U.S. Pat. Nos. 5,837,464 and 6,242,187. PHENOSENSE™ is a phenotypic assay that achieves the benefits of phenotypic testing and overcomes the drawbacks of previous assays.
PHENOSENSE™ can obtain results with only one round of viral replication, thereby avoiding selection of subpopulations of virus that can occur during preparation of viral stocks required for assays that rely on fully infectious virus.
A resistance test vector (“RTV”) can then be constructed by incorporating the amplified viral gene sequences into a replication defective viral vector by using any method known in the art of incorporating gene sequences into a vector. In one embodiment, restrictions enzymes and conventional cloning methods are used. See Sambrook et al., 2001, Molecular Cloning: A Laboratory Manual, Cold Spring Harbor Laboratory, 3rd ed., NY; and Ausubel et al., 1989, Current Protocols in Molecular Biology, Greene Publishing Associates and Wiley Interscience, NY. In a preferred embodiment, ApaI and PinAI restriction enzymes are used. Preferably, the replication defective viral vector is the indicator gene viral vector (“IGVV”). In a preferred embodiment, the viral vector contains a means for detecting replication of the RTV. Preferably, the viral vector contains a luciferase expression cassette.
The assay can be performed by first co-transfecting host cells with RTV DNA and a plasmid that expresses the envelope proteins of another retrovirus, for example, amphotropic murine leukemia virus (MLV). Following transfection, viral particles can be harvested from the cell culture and used to infect fresh target cells in the presence of varying amounts of anti-viral drug(s). The completion of a single round of viral replication in the fresh target cells can be detected by the means for detecting replication contained in the vector. In a preferred embodiment, the completion of a single round of viral replication results in the production of luciferase. By monitoring the amount of, e.g., luciferase activity in the presence of the varying amounts of antiviral drug(s), a resistance curve can be constructed by plotting luciferase activity versus drug concentration. The susceptibility of an HIV, or population of HIV, can be determined by measuring the concentration of antiviral drug at which the luciferase activity detected is half-maximal. This number, the IC50, provides a standard and convenient measure of drug resistance.
Patient derived segment(s) corresponding to the HIV protease and reverse transcriptase coding regions were amplified by the reverse transcription polymerase chain reaction method (RT PCR) using viral RNA isolated from viral particles present in the plasma or serum of HIV infected individuals as follows. Viral RNA was isolated from the plasma or serum using oligo-dT magnetic beads (Dynal Biotech, Oslo, Norway), followed by washing and elution of viral RNA. The RT PCR protocol was divided into two steps. A retroviral reverse transcriptase (e.g. Moloney MuLV reverse transcriptase (Roche Molecular Systems, Inc., Branchburg, N.J.; Invitrogen, Carlsbad, Calif.), or avian myeloblastosis virus (AMV) reverse transcriptase, (Boehringer Mannheim, Indianapolis, Ind.) was used to copy viral RNA into cDNA. The cDNA was then amplified using a thermostable DNA polymerase (e.g. Taq (Roche Molecular Systems, Inc., Branchburg, N.J.), Tth (Roche Molecular Systems, Inc., Branchburg, N.J.), PRIMEZYME™ (isolated from Thermus brockianus, Biometra, Gottingen, Germany)) or a combination of thermostable polymerases as described for the performance of “long PCR” (Barnes, W.M., 1994, Proc. Natl. Acad. Sci, USA 91, 2216 20) (e.g. Expand High Fidelity PCR System (Taq+Pwo), (Boehringer Mannheim. Indianapolis, Ind.); GENEAMP XL™ PCR kit (Tth+Vent), (Roche Molecular Systems, Inc., Branchburg, N.J.); or […] II®, Clontech, Palo Alto, Calif.)

SMILES: CC(C)CN(C[C@@H](O)[C@H](Cc1ccccc1)NC(=O)O[C@H]1CCOC1)S(=O)(=O)c1ccc(N)cc1 [APV, amprenavir]
- correlation of FC in susceptibility with the FC in susceptibility for DRV (2862 clinical samples, FC relative to wild-type (NL4-3), FIG. 1): tightly correlated
- Odds Ratio (mutation A22V in PR): 4.43
- Odds Ratio (mutation A71I in PR): 1.93
- Odds Ratio (mutation A71V in PR): 1.62
- Odds Ratio (mutation A431I in gag): 21.52
- Odds Ratio (mutation A431V in gag): 3.21
- Odds Ratio (mutation C67F in PR): 9.28
- Odds Ratio (mutation C95F in PR): 4.96
- Odds Ratio (mutation D60E in PR): 1.51
- Odds Ratio (mutation E34Q in PR): 4.54
- Odds Ratio (mutation E35D in PR): 1.27
- Odds Ratio (mutation E35N in PR): 10.13
- Odds Ratio (mutation E428D in gag): 1.94
- Odds Ratio (mutation E467K in gag): 2.39
- Odds Ratio (mutation E468K in gag): 2.98
- Odds Ratio (mutation F53L in PR): 4.91
- Odds Ratio (mutation F53Y in PR): 10.44
- Odds Ratio (mutation F463S in gag): 7.28
- Odds Ratio (mutation F463V in gag): 2.29
- Odds Ratio (mutation F465L in gag): 1.65
- Odds Ratio (mutation F465S in gag): 2.17
- Odds Ratio (mutation G16A in PR): 4.49
- Odds Ratio (mutation G73A in PR): 5.85
- Odds Ratio (mutation G73C in PR): 2.98
- Odds Ratio (mutation G73S in PR): 2.69
- Odds Ratio (mutation G73T in PR): 21.84
- Odds Ratio (mutation H69R in PR): 3.98
- Odds Ratio (mutation H441Q in gag): 3.05
- Odds Ratio (mutation I13V in PR): 1.41
- Odds Ratio (mutation I47V in PR): 98.74
- Odds Ratio (mutation I54A in PR): 7.70
- Odds Ratio (mutation I54L in PR): 8.74
- Odds Ratio (mutation I54M in PR): 32.44
- Odds Ratio (mutation I54V in PR): 2.67
- Odds Ratio (mutation I62V in PR): 1.28
- Odds Ratio (mutation I66F in PR): 4.19
- Odds Ratio (mutation I66V in PR): 4.16
- Odds Ratio (mutation I72L in PR): 3.51
- Odds Ratio (mutation I72V in PR): 1.51
- Odds Ratio (mutation I84V in PR): 58.10
- Odds Ratio (mutation I85V in PR): 3.21
- Odds Ratio (mutation I437V in gag): 3.51
- Odds Ratio (mutation I479T in gag): 1.28
- Odds Ratio (mutation K20R in PR): 2.41
- Odds Ratio (mutation K20T in PR): 1.55
- Odds Ratio (mutation K20V in PR): 4.43
- Odds Ratio (mutation K43T in PR): 7.24
- Odds Ratio (mutation K55R in PR): 4.17
- Odds Ratio (mutation L10F in PR): 3.36
- Odds Ratio (mutation L10I in PR): 1.95
- Odds Ratio (mutation L10V in PR): 1.62
- Odds Ratio (mutation L19P in PR): 6.49
- Odds Ratio (mutation L23I in PR): 4.81
- Odds Ratio (mutation L24F in PR): 11.71
- Odds Ratio (mutation L33F in PR): 12.07
- Odds Ratio (mutation L63P in PR): 1.10
- Odds Ratio (mutation L89I in PR): 2.71
- Odds Ratio (mutation L89M in PR): 1.95
- Odds Ratio (mutation L90M in PR): 1.24
- Odds Ratio (mutation L449F in gag): 1.46
- Odds Ratio (mutation L449V in gag): 9.49
- Odds Ratio (mutation M36I in PR): 1.48
- Odds Ratio (mutation M36L in PR): 1.98
- Odds Ratio (mutation M46I in PR): 2.32
- Odds Ratio (mutation M46L in PR): 2.48
- Odds Ratio (mutation M423I in gag): 2.07
- Odds Ratio (mutation N37D in PR): 1.55
- Odds Ratio (mutation P79A in PR): 18.04
- Odds Ratio (mutation P79S in PR): 9.49
- Odds Ratio (mutation P453I in gag): 4.11
- Odds Ratio (mutation P453V in gag): 9.49
- Odds Ratio (mutation P459T in gag): 2.53
- Odds Ratio (mutation Q58E in PR): 4.49
- Odds Ratio (mutation Q61N in PR): 5.22
- Odds Ratio (mutation Q92K in PR): 7.78
- Odds Ratio (mutation R452K in gag): 2.49
- Odds Ratio (mutation R452S in gag): 2.87
- Odds Ratio (mutation S451T in gag): 1.85
- Odds Ratio (mutation S462N in gag): 2.19
- Odds Ratio (mutation S488A in gag): 1.79
- Odds Ratio (mutation T4A in PR): 9.49
- Odds Ratio (mutation T4P in PR): 4.01
- Odds Ratio (mutation T4S in PR): 8.07
- Odds Ratio (mutation T12P in PR): 2.37
- Odds Ratio (mutation T74P in PR): 27.85
- Odds Ratio (mutation T91S in PR): 11.16
- Odds Ratio (mutation V11I in PR): 23.10
- Odds Ratio (mutation V32I in PR): 62.34
- Odds Ratio (mutation V82A in PR): 1.98
- Odds Ratio (mutation V82C in PR): 9.18
- Odds Ratio (mutation V82F in PR): 11.71
- Odds Ratio (mutation V82I in PR): 2.31
- Odds Ratio (mutation V82L in PR): 6.33
- Odds Ratio (mutation V82T in PR): 3.06
